Measured values published in PMC6025957, “Epidermal LysM receptor ensures robust symbiotic signalling in Lotus japonicus” (eLife, 2018).

Legend:
NFR1 kinase domain = target: T1, NFR1 kinase domain (Lotus japonicus, UniProt Q70KR7); test: radioactive kinase assay, autoradiogram; type: biochemical; conditions: labelled compound ([gamma-32P]ATP); 100 µM ATP, MnCl2, MgCl2, HEPES pH 7, room temperature; NFR5 kinase domain as acceptor
T1 construct: intracellular kinase domain, pET-32 Ek/LIC, E. coli Rosetta 2, tag cleaved with TEV
T1 sequence (Q70KR7 254-623 limits assumed): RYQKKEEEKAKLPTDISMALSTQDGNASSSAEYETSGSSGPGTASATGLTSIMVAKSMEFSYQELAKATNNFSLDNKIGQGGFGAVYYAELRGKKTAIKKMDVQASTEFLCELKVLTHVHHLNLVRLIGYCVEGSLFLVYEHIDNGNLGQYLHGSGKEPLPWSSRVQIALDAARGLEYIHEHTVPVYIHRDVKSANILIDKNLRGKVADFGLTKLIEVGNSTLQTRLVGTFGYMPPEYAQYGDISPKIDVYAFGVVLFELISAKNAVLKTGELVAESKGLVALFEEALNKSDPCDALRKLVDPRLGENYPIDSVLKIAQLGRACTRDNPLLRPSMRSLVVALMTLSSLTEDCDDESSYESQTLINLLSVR

NFRe kinase domain = target: T2, NFRe kinase domain (Lotus japonicus, UniProt A8WHB6); test: radioactive kinase assay, autoradiogram; type: biochemical; conditions: labelled compound ([gamma-32P]ATP); 100 µM ATP, MnCl2, MgCl2, HEPES pH 7, room temperature; autophosphorylation, myelin basic protein or NFR5 kinase domain as acceptor
T2 construct: gene nfr1c
T2 sequence (A8WHB6 entry or part of it): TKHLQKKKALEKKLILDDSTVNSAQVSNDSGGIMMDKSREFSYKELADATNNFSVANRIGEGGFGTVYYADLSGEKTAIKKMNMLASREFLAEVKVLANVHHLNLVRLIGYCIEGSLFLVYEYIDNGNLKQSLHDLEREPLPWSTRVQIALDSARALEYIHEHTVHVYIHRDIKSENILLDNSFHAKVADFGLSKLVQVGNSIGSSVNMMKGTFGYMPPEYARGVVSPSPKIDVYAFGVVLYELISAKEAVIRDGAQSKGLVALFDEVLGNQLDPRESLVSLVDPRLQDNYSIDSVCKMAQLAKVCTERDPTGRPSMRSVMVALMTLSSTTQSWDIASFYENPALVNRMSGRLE

AtCERK1 ectodomain = target: T3, AtCERK1 ectodomain (Arabidopsis thaliana, UniProt A8R7E6); test: biolayer interferometry, steady-state; type: binding; conditions: labelled compound; biotinylated (GlcNAc)5 immobilised on streptavidin sensor, protein in solution; PBS pH 7.4, 500 mM NaCl, 0.01% Tween20
T3 construct: gene CERK1; ectodomain only (borders from reported crystal structure), gp67 signal peptide, C-terminal His6, Sf9 insect cells, glycosylated, ~35 kDa
T3 sequence (A8R7E6 24-232 limits assumed): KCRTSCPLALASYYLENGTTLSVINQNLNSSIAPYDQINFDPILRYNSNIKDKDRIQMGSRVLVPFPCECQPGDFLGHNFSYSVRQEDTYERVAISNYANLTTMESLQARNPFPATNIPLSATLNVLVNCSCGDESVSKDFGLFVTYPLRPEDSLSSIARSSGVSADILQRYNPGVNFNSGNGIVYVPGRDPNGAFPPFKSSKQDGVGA

Row | Kd (AtCERK1 ectodomain) [µM] | Structure (SMILES) | radioactive kinase assay, autoradiogram (NFR1 kinase domain) | radioactive kinase assay, autoradiogram (NFRe kinase domain)
1 | – | Nc1ncnc2c1ncn2[C@@H]1O[C@H](COP(=O)(O)OP(=O)(O)OP(=O)(O)O)[C@@H](O)[C@H]1O [ATP] | NFR1 kinase serves as positive control for NFR5 kinase transphosphorylation | NFRe kinase transphosphorylated the myelin basic protein (MBP) substrate and autophosphorylated
2 | 59 | CC(=O)N[C@@H]1[C@@H](O)[C@H](O[C@@H]2O[C@H](CO)[C@@H](O[C@@H]3O[C@H](CO)[C@@H](O[C@@H]4O[C@H](CO)[C@@H](O[C@@H]5O[C@H](CO)[C@@H](O)[C@H](O)[C@H]5NC(C)=O)[C@H](O)[C@H]4NC(C)=O)[C@H](O)[C@H]3NC(C)=O)[C@H](O)[C@H]2NC(C)=O)[C@@H](CO)O[C@H]1O [CO5] | – | –
